In the experiment the target is T1, aldose reductase (AKR1B1) (Homo sapiens, UniProt P15121).
T1 construct: recombinant human AKR1B1 protein (His Tag)
As to the kind of experiment: NADPH consumption at […] nm with DL-glyceraldehyde, recombinant enzyme. It counts as biochemical.

A word on the IC50: it is the point on the concentration scale where inhibition reaches its midpoint.

Take `COc1ccc(-c2cc(=O)c3c(O)c(OC)c(OC)cc3o2)cc1O` [EUP, eupatorin]: the half-maximal inhibitory concentration (IC50) turned out to be 203 ± 0.24 µM.
Regarding `O=C(/C=C/c1ccc(O)c(O)c1)O[C@H](Cc1ccc(O)c(O)c1)C(=O)O` [RA, rosmarinic acid], the IC50 is 41.4 ± 0.04 µM.

The values are drawn from PMC12693523, “Aldose Reductase Inhibition by Orthosiphon stamineus Extracts and Constituents Suggests Antioxidant Potential” (Molecules, 2025).
